Values quoted from earlier work, collected in patent publication US9382233B2, “Forms of vilazodone and processes for the preparation thereof” (APOTEX INC., priority 2012, dated 2016).

Conditions: benzyl alcohol and its equivalents (benzoic acid, benzoate salts, benzaldehyde, benzyl acetate and benzyl benzoate); World Health Organization (JECFA, 2001)

acceptable daily intake (ADI): 5 mg/kg
SMILES: OCc1ccccc1 [benzyl alcohol]
